PubChem BioAssay AID1320 (NMMLSC, 2008)
The source made the active and inactive calls. The rule behind the calls is not given here.

The compounds below were run against Bcl-2-related protein A1 (Homo sapiens) (UniProt Q16548) (assay: inhibitors of Bim binding to Bfl-1, dose response, biochemical, multiplexed, bead-based flow cytometry (AID 1320; for percent span (inhibition): test concentration not given here)). Conditions: Bim peptide-Bfl-1 binding, fluorescence.
Sequence of Bcl-2-related protein A1 (Homo sapiens) (Q16548 whole entry, looked up): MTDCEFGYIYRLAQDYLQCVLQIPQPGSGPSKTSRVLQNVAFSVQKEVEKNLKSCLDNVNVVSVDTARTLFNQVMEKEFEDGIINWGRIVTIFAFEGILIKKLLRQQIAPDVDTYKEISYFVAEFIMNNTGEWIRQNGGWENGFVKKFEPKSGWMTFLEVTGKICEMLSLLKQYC

SMILES	EC50
Cc1c(NC2=C(Cl)C(=O)N(c3ccccc3)C2=O)c(=O)n(-c2ccccc2)n1C	inactive
Fc1ccc(/C=C2\CCCC3=C2NC(=S)NC3c2ccc(F)cc2)cc1 (configuration not stated)	inactive

Same assay, conditions: Bim peptide-Bfl-1 binding, fluorescence

SMILES	percent span (inhibition)
CNc1nc2ccccc2n1/N=C/c1cccc(OC)c1OC	inactive
CCOC(=O)N1CCC(c2cc(=O)n(-c3ccccc3)[nH]2)CC1	inactive
OC(COc1ccc2ccccc2c1)CN1CCCC1 (configuration not stated)	inactive
Cc1ccc2c(C)c(C(=O)Nc3nnc(C)s3)oc2c1	inactive
O=C(NCCCN1CCCC1=O)NC1CCCCC1	inactive
CC(/C=C/C(=O)c1ccc(C)cc1)=C\c1ccccc1	inactive
CCOc1ccccc1-n1c(=O)c2ccccc2c2ccccc2c1=O	inactive
COCCCNc1nc(=S)[nH]c2cc(OC)c(OC)cc12	inactive
N#CC(C#N)=C1C=CC=CN1/C(=C\c1ccco1)C(=O)c1ccccc1	inactive
COc1ccc(NC(=O)c2sccc2SCc2cccc(C(F)(F)F)c2)cc1	inactive
COc1ccc(CC(=O)Nc2ccccc2Oc2ccccc2)cc1	inactive
CCOc1cc(/C=C2/N=C(C)C(C(=O)OC)=C2O)ccc1O	inactive
Cc1ccnc(NS(=O)(=O)c2ccc(NS(=O)(=O)c3cccs3)cc2)n1	inactive
CN(C)CCNC(=O)C(=O)C1C(=O)Nc2ccccc21 (configuration not stated)	inactive
COC(=O)c1ccc(/C=N/NC(=O)CC(=O)NCc2cccnc2)cc1	inactive
CCOc1cc(CNc2ccc(N(C)C)cc2)cc(Br)c1OCC(=O)NC(C)(C)C	inactive
CC1Nc2ccccc2C(=O)N1NS(=O)(=O)c1ccccc1 (configuration not stated)	inactive
O=C(Nc1nccs1)c1ccc(COc2ccc(F)cc2)o1	inactive
CCC(CC)C(=O)Nc1cccc(S(=O)(=O)c2cccc(NC(=O)C(CC)CC)c2)c1	inactive
COc1ccc2nc(NC(=O)c3ccc(-c4cccc([N+](=O)[O-])c4)o3)sc2c1	inactive
Cc1[nH]nc(SCC(=O)NCc2ccc(F)cc2)c1[N+](=O)[O-]	inactive
Nc1ccc(Nc2nc(-c3ccncc3)cs2)cc1	inactive
CCCC1(C(=O)OCC)NC(c2cc(OC)c(OC)c(OC)c2)C2C(=O)N(CC)C(=O)C21 (configuration not stated)	inactive
COc1cc(/C=C2\SC(=S)NC2=O)ccc1OS(=O)(=O)c1ccccc1	inactive

SMILES	percent span (inhibition)
Cc1cc(OCc2cn3cccnc3n2)ccc1Cl	inactive
Cc1cc(N2CCN(C)CC2)nc2ccc(NC(=S)N3CCN(c4cccc(Cl)c4)CC3)cc12	inactive
CCN1CCN(c2cc(C)c3cc(NC(=S)N4CCCCC4)ccc3n2)CC1	inactive
c1ccc(Nc2nc(-c3ccncc3)cs2)cc1	inactive
Cc1cc(C(=O)NCCCN(C)C)c2ccccc2n1	inactive
COc1ccccc1NC(=O)CSc1nnc(-c2ccco2)n1Cc1ccco1	inactive
Brc1ccc2ncnc(Nc3ccc(N4CCOCC4)cc3)c2c1	inactive
CC1CCN(C2(O)C(=O)Nc3ccc(Br)cc32)CC1 (configuration not stated)	inactive
Cc1cc(-c2nn(-c3ccccc3)cc2/C=C2\SC(N)=NC2=O)ccc1OC(C)C	inactive
COc1cccc(/C=C2/SC(=O)N(C)C2=O)c1OCc1ccc(C(=O)O)cc1	inactive
O=C(O)CCN1C(=O)/C(=C\c2ccc(-c3nc4ccccc4s3)o2)SC1=S	inactive
O=C(O)CC/C(=C\c1cc([N+](=O)[O-])ccc1Cl)c1nc2ccccc2s1	inactive
COC(=O)c1c(NC(=O)COc2ncnc3ccccc23)sc(C)c1C	inactive
Cn1c(CCNC(=O)C2CCCCC2)nc2cc(NC(=O)c3cccs3)ccc21	inactive
COc1ccc(C2CC(=O)C3=C(C2)Nc2ccccc2NC3c2coc3ccccc3c2=O)cc1OC (configuration not stated)	inactive
CN=c1scc(C)n1/N=C/c1ccc(O)c(O)c1O	inactive
COc1ccc(C(=O)Nc2ccc(NC(=O)c3cccs3)cc2)cc1Cl	inactive
CC(CCc1ccccc1)NC(=O)C1CCN(S(=O)(=O)N2CCCCC2)CC1 (configuration not stated)	inactive
COC(=O)c1ccc(C)c(NC(=O)CCNC(=O)c2ccc([N+](=O)[O-])cc2)c1	inactive
Cc1nn(-c2ccc(Cl)cc2)c(Cl)c1/C=C(\C#N)C(N)=O	inactive
Cn1c(=O)c2c(nc(NCCO)n2CCc2ccccc2)n(C)c1=O	inactive
O=C(c1cc2ccccc2oc1=O)N(c1ccccc1)C1C=CS(=O)(=O)C1 (configuration not stated)	inactive
Cc1ccc(/C=N/NC(=O)CSc2nnc(-c3ccc(Cl)cc3)n2-c2ccccc2)o1	inactive
COc1cccc(/C=N/Nc2nn3cnnc3c3ccccc23)c1	inactive

SMILES	percent span (inhibition)
COc1ccccc1Oc1ccc2c(c1)C(=O)N(c1cccc3ncccc13)C2=O	inactive
CC[n+]1c(/C=C/C=C/N(C(C)=O)c2ccccc2)sc2ccccc21	inactive
O=S1(=O)N=C(N(CCO)/N=C/c2ccccc2)c2ccccc21	inactive
CCOc1ccc2nc(SCC(=O)N3c4ccccc4Sc4ccccc43)c(C#N)cc2c1	inactive
Cc1sc(NC(=O)Cn2cnnn2)nc1-c1ccc(Cl)cc1	inactive
O=C1CCc2cc(S(=O)(=O)NCCCC(=O)N3CCN(Cc4ccc5c(c4)OCO5)CC3)ccc2N1	inactive
COc1cccc(N2CC(C(=O)Nc3nnc(SCC(=O)c4ccccc4)s3)CC2=O)c1 (configuration not stated)	inactive
O=C(/C=C/c1ccc(-c2ccccc2[N+](=O)[O-])o1)c1ccc(F)cc1	inactive
Cn1cccc1CC(=O)N/N=C\c1ccccc1	inactive
CCN1CCN(CC(=O)c2c[nH]c3ccc(C)cc23)CC1	inactive
COc1cc(/C=C2/NC(=O)N(Cc3ccccc3F)C2=O)cc(OC)c1O	inactive
N#C/C(=C(/O)CN1CCN(c2ccccc2F)CC1)c1nc(-c2ccccc2)cs1	inactive
O=c1[nH]c(SCc2nc3ccccc3c(=O)n2-c2ccccc2C(F)(F)F)nc2ccccc12	inactive
CC(C)c1ccc(C2CC(c3ccc(Br)cc3)=NN2C(N)=S)cc1 (configuration not stated)	inactive
C=CCn1c(C)c(C(C)=O)c(N2CCOCC2)nc1=S	inactive
Cn1c(N)c(C(=O)COC(=O)c2cc(-c3ccco3)nc3ccccc23)c(=O)n(Cc2ccccc2)c1=O	inactive
CNc1ccc(Br)cc(C(=O)/C=C/c2ccc(OC)cc2OC)c1=O	inactive
COc1ccc(OCCNC(=O)c2ccccc2OCC(=O)N2CCCCC2)cc1	inactive
Cc1ccc2c(c1)C1CN(C)CCC1N2C(=O)Nc1cccc(Cl)c1 (configuration not stated)	inactive
Cc1cc(C)c(C)c(S(=O)(=O)N2CCN(CC(=O)NC(=O)NCc3ccccc3)CC2)c1C	inactive
O=C(N/N=C/c1cccnc1)c1cccc(S(=O)(=O)N2CCCC2)c1	inactive
O=C(COc1ccccc1)Nc1ccc2c(c1)Cc1cc(NC(=O)COc3ccccc3)ccc1-2	inactive
COCCn1nnnc1CN(Cc1ccco1)Cc1cc2cc3c(cc2[nH]c1=O)OCO3	inactive
COC(=O)C1C2c3ccccc3OC1(C)N=c1s/c(=C/c3cnn(C)c3C)c(=O)n12 (configuration not stated)	inactive

SMILES	percent span (inhibition)
COc1ccc(S(=O)(=O)NCCSc2ccc(Cl)cc2)cc1OC	inactive
CCC(CC)C(=O)Nc1cccc(SC)c1	inactive
COc1ccccc1NC(=O)CSc1ncn(-c2ccccc2)n1	inactive
CCOC(=O)c1ccc(Nc2nc(C(=O)OCC)nc3ccccc23)cc1	inactive
O=C(Nc1ccccc1)Nc1ccc2ncoc2c1	inactive
Cc1cc(N2CCN(C)CC2)nc2ccc(NC(=S)N3CCN(c4ccc(F)cc4)CC3)cc12	inactive
COc1ccc(/C=C/C(=O)Nc2sc(Cc3ccccc3)c(C)c2C(N)=O)cc1	inactive
COc1cccc(/C=N/Nc2nn3cnnc3c3ccccc23)c1O	inactive
COc1ccc(NC(=O)c2ccco2)cc1NC(=O)c1ccco1	inactive
O=C1NC(=S)S/C1=C/c1ccc(N2CCOCC2)o1	inactive
COc1ccc(NC(=O)c2ccc3c(c2)NC(=O)CS3)cc1S(=O)(=O)Nc1ccc(Br)cc1	inactive
Cc1ccc(Nc2nc(CSc3nnc(-c4cccnc4)n3-c3ccccc3C)cs2)cc1	inactive
COc1cc(/C=N/NC(=O)c2ccc([N+](=O)[O-])cc2Cl)cc(Br)c1O	inactive
Cc1cc(N/C(=N/S(=O)(=O)c2cc(F)ccc2F)c2ccccc2)n(-c2ccccc2)n1	inactive
Cc1ccc(-n2nc(C)c(C(=O)O)n2)c(C)c1	inactive
Cc1cccn2c(=O)c3cc(C(N)=S)c(=N)n(CCCN4CCOCC4)c3nc12	inactive
COCCNC(=S)Nc1cc(OC)c(OC)cc1C#N	inactive
COc1cc(/C=N/Nc2nn3cnnc3c3ccccc23)ccc1O	inactive
O=C(CSc1nnc(-c2cccs2)n1Cc1ccco1)c1ccc2c(c1)OCO2	inactive
N/C(=N\OC(=O)CCC1CCCC1)c1ccncc1	inactive
O=C(CNC(=O)c1ccco1)NCC(=O)OCc1ccccc1Br	inactive
CC(C)CCN1CCN(Cc2cccc3cccnc23)CC1CCO (configuration not stated)	inactive
CCN1CCN(c2cc(C)c3cc(NC(=S)N4CC(C)CC(C)C4)ccc3n2)CC1 (configuration not stated)	inactive
